Literature values in US7285563B2, “Heteroaromatic urea derivatives as VR-1 receptor modulators for treating pain” (priority 2002, dated 2007).

Molecular target: VR1 (Rattus norvegicus, UniProt O35433)
Sequence (O35433 whole entry): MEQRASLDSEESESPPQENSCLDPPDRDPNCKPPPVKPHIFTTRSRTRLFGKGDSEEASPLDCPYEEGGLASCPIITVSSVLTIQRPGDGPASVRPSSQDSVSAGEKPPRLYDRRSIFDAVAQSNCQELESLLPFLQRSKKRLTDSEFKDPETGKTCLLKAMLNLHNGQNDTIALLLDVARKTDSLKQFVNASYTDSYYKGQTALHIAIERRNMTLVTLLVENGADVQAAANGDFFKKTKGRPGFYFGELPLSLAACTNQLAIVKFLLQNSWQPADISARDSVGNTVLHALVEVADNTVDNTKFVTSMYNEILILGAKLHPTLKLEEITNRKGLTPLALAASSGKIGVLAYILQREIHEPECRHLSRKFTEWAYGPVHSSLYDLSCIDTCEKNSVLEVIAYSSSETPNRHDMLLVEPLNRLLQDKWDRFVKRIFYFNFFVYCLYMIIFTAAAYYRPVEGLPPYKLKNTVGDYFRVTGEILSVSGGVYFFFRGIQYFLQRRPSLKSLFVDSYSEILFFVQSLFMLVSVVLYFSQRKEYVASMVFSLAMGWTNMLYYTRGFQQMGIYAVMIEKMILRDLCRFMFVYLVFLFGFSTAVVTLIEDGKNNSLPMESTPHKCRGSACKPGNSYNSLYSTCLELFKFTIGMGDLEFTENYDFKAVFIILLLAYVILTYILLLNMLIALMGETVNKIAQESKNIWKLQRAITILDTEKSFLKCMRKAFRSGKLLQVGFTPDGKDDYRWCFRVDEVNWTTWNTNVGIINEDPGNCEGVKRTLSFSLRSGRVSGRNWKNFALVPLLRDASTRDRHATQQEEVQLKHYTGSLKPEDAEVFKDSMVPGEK

Compound	affinity for VR1 (Walpole et al., J. Med. Chem., 37:1942, 1994)	antagonist of VR1 (Wahl et al., Mol. Pharmacol., 59:9, 2001)
Oc1cc2c(cc1O)CN(C(=S)NCCc1ccc(Cl)cc1)CCC2 [capsazepine]	micromolar affinity	
C=C(C)[C@]12C[C@@H](C)[C@@]34O[C@](Cc5ccccc5)(O[C@@H]1[C@@H]3C=C(COC(=O)Cc1cc(I)c(O)c(OC)c1)C[C@]1(O)C(=O)C(C)=C[C@@H]41)O2 [Iodo-resiniferatoxin]		nanomolar antagonist
